# From article PMC4326127, “Collagen Inhibitory Peptide R1R2 Mediates Vascular Remodeling by Decreasing Inflammation and Smooth Muscle Cell Activation” (PLoS ONE, 2015)
# Entries after “also recorded” stand apart in the source; their conditions may differ.
# Legend:
# [1] = system: left common carotid artery (flow-induced vascular remodeling); test: Morphometric analysis of carotid artery after complete common carotid ligation; format: in vivo, FVB/NJ (FVB) mice; details: for EEL Area / Intima+Media / Intima/Media Ratio / Lumen: 20 μM peptide in 50 μl F-127 pluronic gel, mean ± SEM
# Text: (§1) Animals were anesthetized with isoflurane inhalation. The left common carotid artery was exposed, dissected free from the surrounding connective tissue and completely ligated with 6-0 silk suture just proximal to the carotid bifurcation. […] 4–10 mice were included in each experimental group.
# 5 groups of animals were processed for morphometric analysis. Mice were fixed with 10% formalin 7 or 14 days after the surgery. The common carotid arteries were harvested and embedded in paraffin.
# (§2) For in vivo experiments, the data are shown as the mean ± SEM. For in vitro experiments, the data shown are the means ± SD of a representative experiment, at least 3 independent experiments were performed. One-way ANOVA with post-hoc testing were used for data analysis with GraphPad Prism software (GraphPad, San Diego, CA). If normality test failed, nonparametric Kruskal-Wallis test followed by Dunn's post-hoc test were used. P > 0.05 was not considered significant.
# collagen type I = test: IHC for collagen type I in ligated carotid artery; format: in vivo, FVB/NJ (FVB) mice; details: 7 days after surgery; 20 μM peptide in pluronic gel; mean ± SEM; R1R2 n = 6, scrambled n = 6
# Experimental: as §1
# (§3) Paraffin sections selected from the first mm of the carotid artery in each group were used for immunohistochemistry (IHC). […] Sections were then incubated with appropriate biotinylated secondary antibodies followed by avidin-biotin immunoperoxidase system (Vector Laboratories, Burlingame, CA). Liquid DAB Substrate Chromogen system (Dako, Carpinteria, CA) was used for detection.
# (§4) Quantitative IHC analysis was performed on digital images captured with a 20x objective by using Image-Pro Plus software. Data from 3–6 mice for each group were averaged, and the average values ± SEM were shown. For FN, collagen type I, SM-MHC and SM α-actin, color digital images were transformed into gray scale, and the sum of the optical densities from the intima+media area in each section was determined. […] The percent of positive cells is reported as the proliferation index. […] The intima+media region was traced manually. The percent of positively stained area in intima+media to the total traced area was assessed.
# For in vivo experiments, the data are shown as the mean ± SEM. […]
# CD45 (+) leukocytes = test: CD45 IHC, leukocyte infiltration in carotid intima-media; format: in vivo, FVB/NJ (FVB) mice
# Experimental: as §1, §3, §4, §2
# U937 cells / HUVECs = test: Monocyte U937 transendothelial migration assay; format: cell-based, human; details: HUVECs on 5um transwells, 10 ng/ml TNF-α; U937 1.5x10^5 cells/transwell, 1.5 hours at 37°C; fluorescence 485/535; mean ± SD
# Experimental: as §2
# ICAM-1 = test: Western blot of ICAM-1 in TNF-α-treated HUVECs; format: cell-based, human; details: in words
# Experimental: (§5) Human umbilical vein endothelial cells (HUVECs) and A7r5 SMCs were provided by Resource Center (SB3, NSC 100-2325-B-080-001), National Research Program for Biopharmaceuticals (Hsinchu, Taiwan). HUVECs were maintained in M199 (Life Technologies, Carlsbad, CA) with 25U/ml heparin (Sigma-Aldrich, St. Louis, MO), 10% fetal bovine serum (FBS) and endothelial cell growth supplement (ECGS; Millipore, Billerica, MA). A7r5 SMCs were grown in Dulbecco’s Modified Eagle’s Medium (DMEM) containing high glucose, supplemented with 10% fetal bovine serum. Human U937 cells were grown in RPMI1640 with 10% FBS.
# Tissues or cells were homogenized with RIPA buffer supplemented with protease inhibitor cocktail (Sigma-Aldrich, St. Louis, MO). Cell lysates were spun at 12,000 rpm for 15 min at 4°C, then electrophoresed on 10% SDS-PAGE gel and transferred to nitrocellulose. […]
# Fig 8 R1R2 decreases TNF-α-induced monocyte U937 cell adhesion to HUVECs and transendothelial migration and reduces ICAM-1 and VCAM-1 levels. […] Calcein-AM labeled U937 monocyte adhesion to TNF-α HUVECs was quantitated by fluorescence intensity. Microscopic images showing U937 monocytes adhering to HUVECs as assessed by in vitro adhesion assay. […]
# HUVECs = test: HUVEC proliferation assay; format: cell-based, human; details: at the start of the adhesion assay, versus control peptide; data not shown; in words
# Experimental: as §5
# A7r5 cells and HUVECs were growth-arrested and then stimulated with 10% FBS or 10 ng/ml TNF-αovernight after serum starvation as indicated in the figure legend. Briefly, trypan blue-excluding cells were counted with a hemocytometer, and data were analyzed using GraphPad Prism Software (San Diego, CA) as in previous studies. A second observer performed a similar analysis to verify the initial findings.
# FN fibril = details: in vitro; ref [29]; cited from earlier work
# Text: Therefore, we used the experimental group treated with scrambled peptide as the control group. In Fig. 3A and 3B, IHC analysi ... || In vitro studies have shown that FN is required as a scaffold for collagen deposition. Inhibiting FN polymerization with antibodies or inhibitors prevents FN and collagen fibril deposition into the ECM in vitro [27, 31].
# [2] = 7 day after ligation, periadventitial, scrambled n = 4, R1R2 n = 10
# [3] = 14 day after ligation, periadventitial, scrambled n = 4, R1R2 n = 9
sequence,measurement,setting,value
GLNGENQKEPEQGERGEAGPPLSGLSGNNQGRPSLPGLNGENQKEPEQGERGEAGPP [R1R2],effect on neointimal formation,"[1]; 7 and 14 days post-ligation, 20 μM peptide in pluronic gel, periadventitial, in words",dramatic attenuation in injury-induced neointimal formation
same,EEL Area,[1]; [2],64905 ± 3680 (n = 10) μm^2
same,Intima+Media,[1]; [2],29208 ± 884 (n = 10) μm^2
same,Intima/Media Ratio,[1]; [2],0.0424 ± 0.0133 (n = 10)
same,Lumen,[1]; [2],32038 ± 2870 (n = 10) μm^2
same,"effect on intima-media area, EEL area and intimal/medial ratio","[1]; 7 days and 14 days after ligation, compared to the control mice, in words","significantly reduced intima-media areas (Intima + Media), EEL area and intimal/medial ratios"
same,EEL Area,[1]; [3],51482 ± 4981 (n = 9) μm^2
same,Intima+Media,[1]; [3],25706 ± 1220 (n = 9) μm^2
same,Intima/Media Ratio,[1]; [3],0.0709 ± 0.0231 (n = 9)
same,Lumen,[1]; [3],25776 ± 4286 (n = 9) μm^2
same,effect on lumenal area,"[1]; day 7 and 14 after injury, compared to the controls, in words",no significant decrease in the lumenal area
same,collagen type I IHC intensity in intima-media area,collagen type I,0.117 ± 0.007
same,CD45 (+) area in intima-media,"CD45 (+) leukocytes; 7 days after ligation, percent of positively stained area, mean ± SEM, R1R2 n = 5, scrambled n = 6",0.094 ± 0.035%
same,reduction of inflammatory cell infiltration into the vessel,"CD45 (+) leukocytes; carotid artery, periadventitial pluronic gel",~78%
same,U937 transendothelial migration,U937 cells / HUVECs,65633 ± 20412 cells per well
same,ICAM-1 expression on HUVECs,ICAM-1,significantly decreased; also recorded: transient and detected earlier than the effect on VCAM-1 expression
same,effect on HUVEC cell number,HUVECs,No significant decrease
same,effect on FN fibril deposition/formation,FN fibril,does not affect FN fibril deposition into the ECM; also recorded: does not alter FN fibril formation
